From PubChem BioAssay AID588428 (NMMLSC, 2011) come the findings set out here.

Calls of active or inactive are those of the source.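 The calls were made as follows: active = compounds whose thermal stabilization response is above zero, meaning they raise the protein's melting point; inactive = the rest.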

For this assay, the target named is Beta-adrenergic receptor kinase 1 (Homo sapiens) (UniProt P25098). Kind of assay: direct GRK2 binders by thermal shift, orthogonal assay for GRK2 aptamer-displacement inhibitor project, biophysical, Thermofluor, set 1 (AID 588428). The note with it: purified GRK2 thermal shift, ANS fluorescence; at 200 µM; active compounds read high.
Chain of Beta-adrenergic receptor kinase 1 (Homo sapiens) (P25098 whole entry, looked up): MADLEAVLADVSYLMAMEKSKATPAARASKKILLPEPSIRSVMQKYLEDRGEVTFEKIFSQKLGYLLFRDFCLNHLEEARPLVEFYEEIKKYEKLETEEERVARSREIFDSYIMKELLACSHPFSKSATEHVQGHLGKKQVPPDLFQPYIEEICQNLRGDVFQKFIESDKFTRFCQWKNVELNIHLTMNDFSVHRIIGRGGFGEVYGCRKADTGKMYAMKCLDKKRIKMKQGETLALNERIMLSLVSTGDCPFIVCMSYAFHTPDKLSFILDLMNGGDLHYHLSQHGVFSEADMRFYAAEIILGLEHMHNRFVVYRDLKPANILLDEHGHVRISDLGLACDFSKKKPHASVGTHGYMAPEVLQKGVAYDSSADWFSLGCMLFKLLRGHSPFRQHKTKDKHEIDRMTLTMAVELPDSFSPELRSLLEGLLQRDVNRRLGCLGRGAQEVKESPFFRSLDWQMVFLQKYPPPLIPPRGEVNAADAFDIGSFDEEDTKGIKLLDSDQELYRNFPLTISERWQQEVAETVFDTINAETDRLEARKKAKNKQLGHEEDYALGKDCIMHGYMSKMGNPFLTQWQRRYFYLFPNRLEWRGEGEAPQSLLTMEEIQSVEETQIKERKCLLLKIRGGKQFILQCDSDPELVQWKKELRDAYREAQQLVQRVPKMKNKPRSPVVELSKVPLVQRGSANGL
As to `Cc1cc(=O)[nH]c(SCC(=O)NCc2ccco2)n1`, the thermal stabilization response is -79.1% (inactive). Under `Cc1ccccc1NC(=O)CCS(=O)(=O)c1ccc(Br)cc1` stands 108%; under `O=C(CCS(=O)(=O)c1ccc(Br)cc1)NCCc1ccc(Cl)cc1`, -53% (inactive); under `Cc1cccc(N2CCN(C(=O)CCS(=O)(=O)c3ccc(Br)cc3)CC2C)c1` (stereo not given), -5.78% (inactive). In the case of `Cc1cc2ccccc2n1CCNC(=O)c1cccs1`, the thermal stabilization response was -176% (inactive). Under `COc1ccc(CNC(=O)CCS(=O)(=O)c2ccc(Br)cc2)cc1` stands -114% (inactive); under `O=C(O)C1CC(=O)N(c2ccc3c(c2)OCCO3)C1` (stereo not given), -152% (inactive). `CCc1ccccc1NC(=O)CCS(=O)(=O)c1ccc(Br)cc1`: the thermal stabilization response is -35.6% (inactive).

In the case of `O=C(CCS(=O)(=O)c1ccc(Br)cc1)Nc1cc(F)ccc1F`, the thermal stabilization response is -75% (inactive).

On to `CCOc1ccc(CCNC(=O)CCS(=O)(=O)c2ccc(Br)cc2)cc1OCC`, for which the thermal stabilization response is -112% (inactive).
